Counter-ions that a name gives are not always drawn. Like-named read-outs stand apart in the source and are kept apart here.
What was measured:
[1] = test system: mice with LPS-induced sepsis; assay: Edema in organs (wet/dry weight ratio) of mice with sepsis; assay type: in vivo; conditions: prevention
[2] = test system: IL-6, IL-1β and TNF-α in mouse serum; assay: Inflammatory factors in blood of mice with sepsis at different time points; assay type: in vivo
[3] = test system: TLR-4/MyD88/NF-κB signaling pathway; assay: Related gene expression in lung tissues of mice with sepsis; assay type: in vivo; conditions: after treatment and prevention
Source text: The differences are of statistical significance.

[4] = test system: mice with LPS-induced sepsis; conditions: 20 mg/kg LPS i.p.; for average survival time: LPS group 28.8±6.22 h
Protocol: Method: A mouse model of sepsis was induced by intraperitoneal injection of different toxic doses of 5 mg/kg, 10 mg/kg and 20 mg/kg LPS, and the effects of different doses of LPS on the survival rate of mice with sepsis were observed.
Sepsis was induced by intraperitoneal injection of 5 mg/kg, 10 mg/kg and 20 mg/kg LPS. […] Sepsis was induced by intraperitoneal injection of 20 mg/kg LPS.

[5] = test system: mice with sepsis-related acute lung injury; assay: Sepsis-related acute lung injury in mice (BALF, leakage, arterial oxygen); assay type: in vivo
Source text: Comparisons of data between the four groups are of statistical significance.
Changes in the protein content of mouse BALF, the Evans blue content and the wet/dry weight ratio are shown. […] There is a downward trend in the arterial partial pressure of oxygen in all the injury group mice relative to the normal mice.

cytokine-infused rats = conditions: cited from earlier work
A549 cells = conditions: co-treatment with TNF-α or H2O2; cited from earlier work
[6] = test system: mice with sepsis-related acute lung injury; assay: Efficacy of HucMSC-NVs loaded with ergothioneine in sepsis-related acute lung injury; assay type: in vivo; conditions: FIG. 11 A-C
Source text: Referring to FIG. 11, three classical inflammatory factors (IL-1β, IL-6, and TNF-α) in BALF are shown in panels A-C.

[7] = prevention: tail vein injection 1 h before 20 mg/kg LPS i.p., FIG. 3
[8] = treatment: tail vein injection 2 h after 20 mg/kg LPS i.p., FIG. 4

## C[N+](C)(C)[C@@H](Cc1c[nH]c(=S)[nH]1)C(=O)[O-] [ergothioneine, (S)-α-Carboxy-N,N,N-trimethyl-2-mercapto-1H-imidazole-4-ethanaminium inner salt]
[1]
  kidney edema: not significantly ameliorated
[2]; [7]
  IL-1β release in blood: significantly reduced
  IL-6 release in blood: significantly reduced
[2]; [8]
  IL-6 release in blood: significantly reduced
  TNF-α release in blood: significantly reduced
[3]; FIG. 9 A
  TLR-4 gene expression: significantly down-regulated
[3]; FIG. 9 B
  MyD88 gene expression: significantly down-regulated
[3]; FIG. 9 C
  NF-κB gene expression: significantly down-regulated
[4]; 5 mg/kg ergothioneine
  average survival time: 41.4 ± 10.48 h
[4]; 10 mg/kg ergothioneine
  average survival time: 44.4 ± 3.921 h
[4]; FIG. 2
  mortality in mice with sepsis: reduced mortality
[4]; 50 mg/kg ergothioneine
  average survival time: 46.8 ± 2.68 h
[4]; prevention, 5 mg/kg ergothioneine
  mice died: 2 mice
[4]; prevention, 10 mg/kg ergothioneine
  mice died: 3 mice
[4]; prevention, 20 mg/kg ergothioneine
  mice died: all
[4]; prevention, 50 mg/kg ergothioneine
  mice died: 1 mouse
[4]; treatment, 5 mg/kg ergothioneine
  mice died: all
[4]; treatment, 10 mg/kg ergothioneine
  mice died: all
[4]; treatment, 20 mg/kg ergothioneine
  mice died: 4 mice
[4]; treatment, 50 mg/kg ergothioneine
  mice died: 3 mice
[5]; different concentrations of EGT, FIG. 7 G
  arterial partial pressure of oxygen: significantly improved
[5]; four groups with different concentrations of ergothioneine, FIG. 7 A-C
  inflammatory factor levels in BALF (IL-1β, IL-6 and TNF-α): reduced inflammatory factor levels in BALF
cytokine-infused rats
  acute lung injury: reduce acute lung injury
A549 cells
  GSH level: protected the cells from decreases in the GSH level
  NF-κB activation: inhibited NF-κB activation
[6]
  level of inflammatory factors in BALF (IL-6, TNF-α, IL-1β): reduced the level of inflammatory factors in BALF

From patent US20240197683A1 (JIANGSU UNIVERSITY, priority 2023, published 2024)
